Source: PMC11589570, “Critical assessment of LC3/GABARAP ligands used for degrader development and ligandability of LC3/GABARAP binding pockets” (Nature Communications, 2024)
Read-outs that look alike come from different tables or passages of the source.

Molecular target: LC3B (Homo sapiens, UniProt Q9GZQ8)
Conditions: for CSP: LC3B:ligand molar ratio 1:2; for 3D Mapping code: molar ratio 1:2

With `O=C1Nc2ccc(I)cc2C1=Cc1cc(Br)c(O)c(Br)c1` [compound 4] the Kd was at least 200 µM, the CSP induced (I34 HN resonance, molar ratio 10O5:LC3B 1) was 0.019 and the CSP induced (I34 HN resonance, molar ratio 10O5:LC3B 2) was 0.03102. For the same compound, the CSP induced (I34 HN resonance, molar ratio 10O5:LC3B 8) was 0.06113, the CSP induced (K51 HN resonance, molar ratio 10O5:LC3B 1) was 0.02725 and the CSP induced (K51 HN resonance, molar ratio 10O5:LC3B 2) was 0.0413. For the same compound, the CSP induced (K51 HN resonance, molar ratio 10O5:LC3B 8) was 0.0854, the CSP induced (L82 HN resonance, molar ratio 10O5:LC3B 1) was 0.01304 and the CSP induced (L82 HN resonance, molar ratio 10O5:LC3B 2) was 0.03131. The CSP induced (L82 HN resonance, molar ratio 10O5:LC3B 8) was 0.0642, the CSP (LC3B residue A75) was 0.00342 ppm and the CSP (LC3B residue A78) was 0.00654 ppm. For the same compound, the CSP (LC3B residue A114) was 0.006 ppm, the CSP (LC3B residue D19) was 0.011 ppm and the CSP (LC3B residue D48) was 0.026 ppm. The “3D Mapping code” value (LC3B residue D48) was “Light green (intermediate (SD < CSP <2xSD))”, the CSP (LC3B residue D56) was 0.017 ppm and the “3D Mapping code” value (LC3B residue D56) was “Light green (intermediate (SD < CSP <2xSD))”. For the same compound, the CSP (LC3B residue D104) was 0.00224 ppm, the CSP (LC3B residue D106) was 0.00462 ppm and the CSP (LC3B residue E14) was 0.00184 ppm. The CSP (LC3B residue E18) was 0.00544 ppm, the CSP (LC3B residue E25) was 0.018 ppm and the “3D Mapping code” value (LC3B residue E25) was “Light green (intermediate (SD < CSP <2xSD))”. The CSP (LC3B residue E36) was 0.023 ppm, the “3D Mapping code” value (LC3B residue E36) was “Light green (intermediate (SD < CSP <2xSD))” and the CSP (LC3B residue E41) was 0.002 ppm. For the same compound, the CSP (LC3B residue E62) was 0.016 ppm, the “3D Mapping code” value (LC3B residue E62) was “Light green (intermediate (SD < CSP <2xSD))” and the CSP (LC3B residue E97) was 0.013 ppm. For the same compound, the CSP (LC3B residue E100) was 0.015 ppm, the CSP (LC3B residue E102) was 0.00152 ppm and the CSP (LC3B residue E105) was 0.00355 ppm. For the same compound, the CSP (LC3B residue E117) was 0.010 ppm, the CSP (LC3B residue F07) was 0.011 ppm and the CSP (LC3B residue F13) was 0.00221 ppm. For the same compound, the CSP (LC3B residue F52) was 0.070 ppm, the “3D Mapping code” value (LC3B residue F52) was “Orange (strong (2xSD <CSP))” and the CSP (LC3B residue F108) was 0.00424 ppm. For the same compound, the CSP (LC3B residue F119) was 0.003 ppm, the CSP (LC3B residue G40, estimated) was 0.006 ppm and the “3D Mapping code” value (LC3B residue G85) was “Light green (intermediate (SD < CSP <2xSD))”. For the same compound, the CSP (LC3B residue G107) was 0.005 ppm, the CSP (LC3B residue H27) was 0.018 ppm and the “3D Mapping code” value (LC3B residue H27) was “Light green (intermediate (SD < CSP <2xSD))”. The CSP (LC3B residue H57) was 0.022 ppm, the “3D Mapping code” value (LC3B residue H57) was “Light green (intermediate (SD < CSP <2xSD))” and the “3D Mapping code” value (LC3B residue H86) was “Light green (intermediate (SD < CSP <2xSD))”. The CSP (LC3B residue I23) was 0.018 ppm, the “3D Mapping code” value (LC3B residue I23) was “Light green (intermediate (SD < CSP <2xSD))” and the CSP (LC3B residue I31) was 0.020 ppm. The “3D Mapping code” value (LC3B residue I31) was “Light green (intermediate (SD < CSP <2xSD))”, the CSP (LC3B residue I34) was 0.026 ppm and the “3D Mapping code” value (LC3B residue I34) was “Light green (intermediate (SD < CSP <2xSD))”. The CSP (LC3B residue I35) was 0.011 ppm, the CSP (LC3B residue I64) was 0.035 ppm and the “3D Mapping code” value (LC3B residue I64) was “Orange (strong (2xSD <CSP))”. The CSP (LC3B residue I66) was 0.00535 ppm, the CSP (LC3B residue I67) was 0.022 ppm and the “3D Mapping code” value (LC3B residue I67) was “Light green (intermediate (SD < CSP <2xSD))”. The “3D Mapping code” value (LC3B residue I95) was “Light green (intermediate (SD < CSP <2xSD))”, the CSP (LC3B residue K08) was 0.006 ppm and the CSP (LC3B residue K30) was 0.022 ppm. The “3D Mapping code” value (LC3B residue K30) was “Light green (intermediate (SD < CSP <2xSD))”, the CSP (LC3B residue K39) was 0.008 ppm and the CSP (LC3B residue K42) was 0.00565 ppm. For the same compound, the CSP (LC3B residue K49) was 0.017 ppm, the “3D Mapping code” value (LC3B residue K49) was “Light green (intermediate (SD < CSP <2xSD))” and the CSP (LC3B residue K51) was 0.037 ppm. The “3D Mapping code” value (LC3B residue K51) was “Orange (strong (2xSD <CSP))”, the CSP (LC3B residue K65) was 0.004 ppm and the CSP (LC3B residue K103) was 0.011 ppm. The CSP (LC3B residue L22) was 0.009 ppm, the CSP (LC3B residue L44) was 0.00371 ppm and the CSP (LC3B residue L47) was 0.022 ppm. The “3D Mapping code” value (LC3B residue L47) was “Light green (intermediate (SD < CSP <2xSD))”, the CSP (LC3B residue L53) was 0.052 ppm and the “3D Mapping code” value (LC3B residue L53) was “Orange (strong (2xSD <CSP))”. For the same compound, the CSP (LC3B residue L63) was 0.011 ppm, the CSP (LC3B residue L71) was 0.011 ppm and the CSP (LC3B residue L73) was 0.011 ppm. The “3D Mapping code” value (LC3B residue L81) was “Light green (intermediate (SD < CSP <2xSD))”, the “3D Mapping code” value (LC3B residue L82) was “Light green (intermediate (SD < CSP <2xSD))” and the CSP (LC3B residue L109) was 0.00462 ppm. For the same compound, the CSP (LC3B residue M01, estimated) was 0.002 ppm and the CSP (LC3B residue M60) was 0.024 ppm.
